Where two headings read alike, the source gives them in different places.
Legend:
Avi-tagged FL MALT-1 = Avi-tagged FL MALT-1 (Homo sapiens (Human), UniProt Q9UDY8); assay: MALT-1 Fluorogenic Peptide Cleavage Assay (MALT1 inhibition assay); assay type: biochemical; settings: Ac-LRSR-AMC peptide substrate, 30 min pre-incubation, 90 min reaction at room temperature
Procedure, shortened: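 Full-length Avi-tagged human MALT-1 (40 nM working stock) pre-incubated 30 min at RT with compound in 25 mM HEPES pH 6.89, 660 mM sodium citrate, 1 mM TCEP, […], 0.05% CHAPS, 2% DMSO. Ac-LRSR-AMC added at Km (50 μM working stock) or 10×Km (280 μM working stock); 90 min at RT, AMC fluorescence (ex 342/em 441 nm), IC50 from % inhibition curves.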

[1] = system: NF-kB reporter in Jurkat cells; assay: NF-kB reporter assay in Jurkat cells stimulated with aCD3/aCD28/PMA; assay type: cell-based; settings: read-out: NF-kB Reporter Assay IC50
Procedure, shortened: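 Jurkat cells (25,000/well, serum-free RPMI) were pre-incubated 1 h at 37° C with serially diluted compound, then stimulated 4 h with aCD3/aCD28/PMA at final […]. NF-kB reporter activity was read by One-Glo luminescence; IC50 values reported.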

[2] = Homo sapiens, Jurkat cells, 1 hr compound pre-incubation, aCD3/aCD28/PMA stimulation 4 hr, One-Glo readout
[3] = Jurkat cells, 1 hr compound pre-incubation, aCD3/aCD28/PMA stimulation 4 hr, One-Glo readout

Avi-tagged FL MALT-1, sequence (Q9UDY8 whole entry): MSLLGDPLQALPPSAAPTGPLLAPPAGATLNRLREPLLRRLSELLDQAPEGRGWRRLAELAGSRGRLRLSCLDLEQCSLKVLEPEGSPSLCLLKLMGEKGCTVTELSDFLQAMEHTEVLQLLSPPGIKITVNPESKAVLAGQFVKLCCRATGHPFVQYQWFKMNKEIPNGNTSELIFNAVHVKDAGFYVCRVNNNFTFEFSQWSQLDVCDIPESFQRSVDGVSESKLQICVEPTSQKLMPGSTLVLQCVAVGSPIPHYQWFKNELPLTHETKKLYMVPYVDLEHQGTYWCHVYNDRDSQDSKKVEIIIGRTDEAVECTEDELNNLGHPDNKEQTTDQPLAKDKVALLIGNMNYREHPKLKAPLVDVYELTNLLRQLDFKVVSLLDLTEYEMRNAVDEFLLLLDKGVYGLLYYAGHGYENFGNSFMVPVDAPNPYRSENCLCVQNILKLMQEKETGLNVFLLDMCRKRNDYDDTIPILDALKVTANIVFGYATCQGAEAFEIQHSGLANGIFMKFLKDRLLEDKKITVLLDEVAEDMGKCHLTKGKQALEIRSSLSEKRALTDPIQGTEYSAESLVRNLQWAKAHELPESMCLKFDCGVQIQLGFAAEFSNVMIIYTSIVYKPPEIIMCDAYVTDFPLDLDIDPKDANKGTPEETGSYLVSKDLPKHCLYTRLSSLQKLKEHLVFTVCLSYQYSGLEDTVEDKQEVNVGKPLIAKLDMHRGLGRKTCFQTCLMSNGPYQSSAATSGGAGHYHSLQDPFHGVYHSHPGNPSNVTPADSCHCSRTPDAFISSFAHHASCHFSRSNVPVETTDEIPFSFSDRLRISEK

| Compound | IC50 (Avi-tagged FL MALT-1) [µM] | IC50 [1, 2] [µM] | IC50 [1, 3] [µM] | IC50 ([1]; Homo sapiens, Jurkat) [µM] |
| --- | --- | --- | --- | --- |
| Cn1ncc2cccc(NS(=O)(=O)c3cnn([C@@H]4CCCN(CC(F)(F)F)C4)c3)c21 [Compound I-328] | > 2.5 | 1 to 2.5 | – | – |
| Cn1ncc2cccc(NS(=O)(=O)c3cnn([C@H]4CCCN(CC(F)(F)F)C4)c3)c21 [Compound I-329] | > 2.5 | 1 to 2.5 | – | – |
| COC[C@](C)(F)c1ccnc(-n2cc(S(=O)(=O)Nc3cccc4cnn(C)c34)cn2)c1 [Compound I-330, (R)-1-(4-(2-fluoro-1-methoxypropan-2-yl)pyridin-2-yl)-N-(1-methyl-1H-indazol-7-yl)-1H-pyrazole-4-sulfonamide] | > 2.5 | < 0.4 | – | – |
| COC[C@@](C)(F)c1ccnc(-n2cc(S(=O)(=O)Nc3cccc4cnn(C)c34)cn2)c1 [Compound I-331, (S)-1-(4-(2-fluoro-1-methoxypropan-2-yl)pyridin-2-yl)-N-(1-methyl-1H-indazol-7-yl)-1H-pyrazole-4-sulfonamide] | > 2.5 | < 0.4 | – | – |
| CN1C(=O)N(c2ccnc(-n3cc(S(=O)(=O)Nc4cccc5cnn(C)c45)cn3)c2)CC1(C)C [Compound I-332] | > 2.5 | < 0.4 | – | – |
| CN1CC(C)(C)N(c2ccnc(-n3cc(S(=O)(=O)Nc4cccc5cnn(C)c45)cn3)c2)C1=O [Compound I-333] | > 2.5 | < 0.4 | – | – |
| Cn1ncc2cccc(NS(=O)(=O)c3cnn(-c4cc([C@@]5(F)CCOC5)ccn4)c3)c21 [Compound I-334] | > 2.5 | < 0.4 | – | – |
| Cn1ncc2cccc(NS(=O)(=O)c3cnn(-c4cc([C@]5(F)CCOC5)ccn4)c3)c21 [Compound I-335] | > 2.5 | < 0.4 | – | – |
| [2H]C([2H])([2H])n1ncc2ccc(OC)c(N(C)S(=O)(=O)c3cnn(-c4cc(C(F)(F)F)ccn4)c3)c21 [Compound I-336, N-(6-methoxy-1-(methyl-d3)-1H-indazol-7-yl)-N-methyl-1-(4-(trifluoromethyl)pyridin-2-yl)-1H-pyrazole-4-sulfonamide] | ≤ 0.4 | < 0.4 | – | – |
| Cn1ncc2ccc(OC(F)(F)F)c(N(S(=O)(=O)c3cnn(-c4cc(C(F)(F)F)ccn4)c3)S(=O)(=O)c3cnn(-c4cc(C(F)(F)F)ccn4)c3)c21 [Compound I-337, N-[1-methyl-6-(trifluoromethoxy)indazol-7-yl]-1-[4-(trifluoromethyl)pyridin-2-yl]-N-{1-[4-(trifluoromethyl)pyridin-2-yl]pyrazol-4-ylsulfonyl}pyrazole-4-sulfonamide] | > 2.5 | > 2.5 | – | – |
| [2H]c1cnc(-n2cc(S(=O)(=O)Nc3cccc4cnn(C([2H])([2H])[2H])c34)cn2)cc1C(F)(F)F [Compound I-338, N-(1-(methyl-d3)-1H-indazol-7-yl)-1-(4-(trifluoromethyl)pyridin-2-yl-5-d)-1H-pyrazole-4-sulfonamide] | ≤ 0.4 | < 0.4 | – | – |
| COc1ccc2cnn(C)c2c1NS(=O)(=O)c1cnn(-c2cc(C(C)O)ccn2)c1 (stereo not drawn) [Compound I-339, 1-(4-(1-hydroxyethyl)pyridin-2-yl)-N-(6-methoxy-1-methyl-1H-indazol-7-yl)-1H-pyrazole-4-sulfonamide] | ≤ 0.4 | – | < 0.4 | – |
| COc1ccc2cnn(C)c2c1NS(=O)(=O)c1cnn(-c2cc([C@@H](C)O)ccn2)c1 [Compound I-340, (R)-1-(4-(1-hydroxyethyl)pyridin-2-yl)-N-(6-methoxy-1-methyl-1H-indazol-7-yl)-1H-pyrazole-4-sulfonamide] | ≤ 0.4 | < 0.4 | – | – |
| COC[C@@H](OC)c1ccnc(-n2cc(S(=O)(=O)Nc3cccc4cnn(C)c34)cn2)c1 [Compound I-341] | > 2.5 | < 0.4 | – | – |
| COC[C@H](OC)c1ccnc(-n2cc(S(=O)(=O)Nc3cccc4cnn(C)c34)cn2)c1 [Compound I-342] | > 2.5 | 0.4 to 1 | – | – |
| C=CC(F)c1ccnc(-n2cc(S(=O)(=O)Nc3c(OC)ccc4cnn(C)c34)cn2)c1 (stereo not drawn) [Compound I-343, 1-(4-(1-fluoroallyl)pyridin-2-yl)-N-(6-methoxy-1-methyl-1H-indazol-7-yl)-1H-pyrazole-4-sulfonamide] | ≤ 0.4 | 1 to 2.5 | – | – |
| CN1CC(O)(c2ccnc(-n3cc(S(=O)(=O)Nc4cccc5cnn(C)c45)cn3)c2)C1 [Compound I-344] | > 2.5 | > 2.5 | – | – |
| CN1CCC(n2cc(S(=O)(=O)Nc3cccc4cnn(C)c34)cn2)CC1 [Compound I-345] | > 2.5 | 0.4 to 1 | – | – |

| Compound | IC50 (Avi-tagged FL MALT-1) [µM] | IC50 [1, 2] [µM] | IC50 [1, 3] [µM] | IC50 ([1]; Homo sapiens, Jurkat) [µM] |
| --- | --- | --- | --- | --- |
| C[C@H]1CN(c2ccnc(-n3cc(S(=O)(=O)Nc4cccc5cnn(C)c45)cn3)c2)C(=O)N1C [Compound I-346] | > 2.5 | < 0.4 | – | – |
| C[C@@H]1CN(c2ccnc(-n3cc(S(=O)(=O)Nc4cccc5cnn(C)c45)cn3)c2)C(=O)N1C [Compound I-347, (R)-1-(4-(3,4-dimethyl-2-oxoimidazolidin-1-yl)pyridin-2-yl)-N-(1-methyl-1H-indazol-7-yl)-1H-pyrazole-4-sulfonamide] | > 2.5 | < 0.4 | – | – |
| C[C@@H]1CN(C)C(=O)N1c1ccnc(-n2cc(S(=O)(=O)Nc3cccc4cnn(C)c34)cn2)c1 [Compound I-348] | > 2.5 | < 0.4 | – | – |
| C[C@H]1CN(C)C(=O)N1c1ccnc(-n2cc(S(=O)(=O)Nc3cccc4cnn(C)c34)cn2)c1 [Compound I-349] | > 2.5 | < 0.4 | – | – |
| CN1C[C@H](n2cc(S(=O)(=O)Nc3cccc4cnn(C)c34)cn2)CCC1=O [Compound I-350] | > 2.5 | > 2.5 | – | – |
| CN1C[C@@H](n2cc(S(=O)(=O)Nc3cccc4cnn(C)c34)cn2)CCC1=O [Compound I-351] | > 2.5 | > 2.5 | – | – |
| [2H]C([2H])([2H])n1ncc2cnc(OC)c(NS(=O)(=O)c3cnn(-c4cc(C(F)(F)F)ccn4)c3)c21 [Compound I-352, N-(6-methoxy-1-(methyl-d3)-1H-pyrazolo[4,3-c]pyridin-7-yl)-1-(4-(trifluoromethyl)pyridin-2-yl)-1H-pyrazole-4-sulfonamide] | ≤ 0.4 | < 0.4 | – | – |
| [2H]c1nn(C([2H])([2H])[2H])c2c(NS(=O)(=O)c3cnn(-c4cc(C(F)(F)F)ccn4)c3)cccc12 [Compound I-353, N-(1-(methyl-d3)-1H-indazol-7-yl-3-d)-1-(4-(trifluoromethyl)pyridin-2-yl)-1H-pyrazole-4-sulfonamide] | ≤ 0.4 | < 0.4 | – | – |
| [2H]C([2H])([2H])n1ncc2cnc(OC)c(N(C)S(=O)(=O)c3cnn(-c4cc(C(F)(F)F)ccn4)c3)c21 [Compound I-354, N-(6-methoxy-1-(methyl-d3)-1H-pyrazolo[4,3-c]pyridin-7-yl)-N-methyl-1-(4-(trifluoromethyl)pyridin-2-yl)-1H-pyrazole-4-sulfonamide] | ≤ 0.4 | < 0.4 | – | – |
| O=S(=O)(c1cnn(-c2cc(C(F)(F)F)ccn2)c1)N1CCn2ncc3cccc1c32 [Compound I-355, 1-((1-(4-(trifluoromethyl)pyridin-2-yl)-1H-pyrazol-4-yl)sulfonyl)-2,3-dihydro-1H-pyrazolo[1,5,4-de]quinoxaline] | > 2.5 | – | – | > 2.5 |
| CC1CN(c2ccnc(-n3cc(S(=O)(=O)Nc4cccc5cnn(C)c45)cn3)c2)C1 [Compound I-356, N-(1-methyl-1H-indazol-7-yl)-1-(4-(3-methylazetidin-1-yl)pyridin-2-yl)-1H-pyrazole-4-sulfonamide] | > 2.5 | < 0.4 | – | – |
| C=Cn1cc2cccc(NS(=O)(=O)c3cnn(-c4cc(C(F)(F)F)ccn4)c3)c2n1 [Compound I-357, 1-(4-(trifluoromethyl)pyridin-2-yl)-N-(2-vinyl-2H-indazol-7-yl)-1H-pyrazole-4-sulfonamide] | > 2.5 | > 2.5 | – | – |
| Cn1ncc2cccc(NS(=O)(=O)c3cnn(-c4cc(C5(O)CC(F)C5)ccn4)c3)c21 (stereo not drawn) [Compound I-358] | > 2.5 | < 0.4 | – | – |
| Cn1ncc2cccc(NS(=O)(=O)c3cnn(-c4cc(C5(O)CC(F)(F)C5)ccn4)c3)c21 [Compound I-359] | > 2.5 | < 0.4 | – | – |
| COC1(c2ccnc(-n3cc(S(=O)(=O)Nc4cccc5cnn(C)c45)cn3)c2)CC(C)C1 (stereo not drawn) [Compound I-362, 1-(4-(1-methoxy-3-methylcyclobutyl)pyridin-2-yl)-N-(1-methyl-1H-indazol-7-yl)-1H-pyrazole-4-sulfonamide] | > 2.5 | < 0.4 | – | – |
| COC1(c2ccnc(-n3cc(S(=O)(=O)Nc4cccc5cnn(C)c45)cn3)c2)CC(C)C1 (stereo not drawn) [Compound I-363, 1-(4-(1-methoxy-3-methylcyclobutyl)pyridin-2-yl)-N-(1-methyl-1H-indazol-7-yl)-1H-pyrazole-4-sulfonamide] | > 2.5 | – | < 0.4 | – |
| Cn1ncc2cccc(NS(=O)(=O)c3cnn(-c4cc(C5(F)CC(F)C5)ccn4)c3)c21 (stereo not drawn) [Compound I-366, 1-(4-(1,3-difluorocyclobutyl)pyridin-2-yl)-N-(1-methyl-1H-indazol-7-yl)-1H-pyrazole-4-sulfonamide] | > 2.5 | – | < 0.4 | – |
| Cn1ncc2cccc(NS(=O)(=O)c3cnn(-c4cc(N5CC(C)(C)C5)ccn4)c3)c21 [Compound I-367] | > 2.5 | < 0.4 | – | – |

From patent US20240150321A1, “PYRAZOLYLSULFONAMIDE COMPOUNDS AND THEIR USE IN THERAPY” (HOTSPOT THERAPEUTICS, INC., priority 2022, published 2024)
